One test addresses T1, Recombinant human HDAC1 (Homo sapiens, UniProt Q13547).
T1 construct: FLAG (C); made in house
Nature of the test: Human HDAC enzyme inhibitor Fluor-de-Lys assay, HDAC1. The test is classed as biochemical. As to conditions: recombinant human HDAC1, Fluor-de-Lys assay. How it is done: (§1) Human HDAC Enzyme Inhibitor Fluor-De-Lys Assay
(§2) Recombinant human HDAC8 (BML-SE145-0100) and HDAC10 (BML-SE559-0050) enzymes, HDAC substrates BML-KI104 and BML-KI178, and HDAC developer solutions BML-KI105 and BML-KI176 were purchased from Enzo Life Sciences. […] HDAC inhibitor suberoylanilide hydroxamic acid (SAHA) was obtained from Indofine and trichostatin A (TSA) was obtained from Sigma-Aldrich.
(§3) Recombinant human HDAC1, HDAC2, and HDAC3/SMRT heterodimer were prepared by Merck Research Laboratories. […] The eluted protein was then passed over an anti-HDAC1 immunoaffinity column to remove any complexes containing HDAC1. […]
(§4) The histone deacetylase activities of HDAC1, HDAC2, HDAC3, HDAC6, and HDAC8 were measured in modified FLUOR DE LYS assays in 384-well format. In this assay, HDAC enzymes are initially incubated with an ε-acetyl (or -trifluoroacetyl)-L-lysine-containing substrate with a C-terminal amide having aminomethylcoumarin as the amine component. HDACs cleave the ε-acetyl group, rendering the resulting product susceptible to AMC cleavage by trypsin. The released AMC is then detected by its fluorescence.
(§5) The HDAC3/SMRT assay employed buffer B, consisting of 20 mM HEPES, pH 8.0, 1 mM MgCl2, 50 mM NaCl, 2.7 mM KCl, 0.05% BSA, 0.005% Tween 20, and 10 μM IP4. […] The HDAC8 assay employed buffer D, consisting of 20 mM HEPES, pH 8.0, 1 mM MgCl2, 100 mM NaCl, 20 mM KCl, 0.10% n-octyl-β-D-glucoside (Anatrace) and 0.05% BSA. All steps were performed at room temperature (23° C.). The assay was performed by pre-incubating serial dilutions of test compounds with the target HDAC prior to initiation with substrate. Each compound was titrated in a 10-point dose response, using a 1:3 fold dilution scheme, with 0.15 ul of solution added by ECH0555 to the plate, followed by the addition of 20 μl of the appropriate HDAC isoform diluted in appropriate assay buffer. […] Final conditions used for each assay were: 1. HDAC 1, 0.3 nM total enzyme, 20 μM substrate BML-KI104; 2. […] HDAC 3/SMRT, 0.3 nM total enzyme, 20 μM substrate BML-KI104; 4. […] The reactions were stopped and developed by addition of 30 ul of HDAC developer solution containing a saturating level of HDAC inhibitor as follows: 1.

In another test the target is T2, Recombinant human HDAC2 (Homo sapiens, UniProt Q92769).
T2 construct: Full length human HDAC2-FLAG was expressed in baculovirus infected Sf9 cells; FLAG (C); made in house; host or cells: Sf9 (baculovirus)
The test can be described thus: Human HDAC enzyme inhibitor Fluor-de-Lys assay, HDAC2. The test is classed as biochemical. How it is done: as §1, §2, §3, §4, §5

The target in test [1] is T3, Recombinant human HDAC3/SMRT heterodimer (Homo sapiens, UniProt O15379).
T3 construct: FLAG (C); made in house
The test can be described thus: Human HDAC enzyme inhibitor Fluor-de-Lys assay, HDAC3/SMRT. Conditions: recombinant human HDAC3/SMRT, Fluor-de-Lys assay. The test is classed as biochemical.

For another test, the target named is T4, Recombinant human HDAC8 (Homo sapiens, UniProt Q9BY41).
T4 construct: purchased Enzo Life Sciences BML-SE145-0100
T4 sequence (Q9BY41 1-377): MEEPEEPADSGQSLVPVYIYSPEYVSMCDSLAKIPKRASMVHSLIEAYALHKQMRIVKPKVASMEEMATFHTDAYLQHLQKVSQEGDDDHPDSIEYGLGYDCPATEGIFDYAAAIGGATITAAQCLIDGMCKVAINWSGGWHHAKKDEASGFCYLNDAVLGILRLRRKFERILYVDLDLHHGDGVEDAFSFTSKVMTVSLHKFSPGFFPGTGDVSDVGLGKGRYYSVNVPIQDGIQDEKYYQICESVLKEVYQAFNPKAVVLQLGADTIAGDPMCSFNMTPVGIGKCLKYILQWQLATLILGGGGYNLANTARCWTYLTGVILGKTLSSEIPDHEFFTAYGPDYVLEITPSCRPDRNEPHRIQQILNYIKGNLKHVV
Nature of the test: Human HDAC enzyme inhibitor Fluor-de-Lys assay, HDAC8. It is filed as biochemical.

A further test relates to KARN cells (Jurkat 2C4). Nature of the test: cells. The test is classed as cell-based. Conditions: Homo sapiens, Jurkat. An outline of the steps:
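Jurkat 2C4 (KARN) cells dosed with test compounds up to 40 μM final, 0.4% DMSO, overnight at 5% CO2; luciferase read by Steady-Glo luminescence after 10 min at room temperature. DMSO set as 0% and 2 μM SAHA as 100% induction; 4-parameter fit of percent activation.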

In a further test the target is T5, HDAC6 (Homo sapiens, UniProt Q9UBN7).
T5 sequence (Q9UBN7 1-1215): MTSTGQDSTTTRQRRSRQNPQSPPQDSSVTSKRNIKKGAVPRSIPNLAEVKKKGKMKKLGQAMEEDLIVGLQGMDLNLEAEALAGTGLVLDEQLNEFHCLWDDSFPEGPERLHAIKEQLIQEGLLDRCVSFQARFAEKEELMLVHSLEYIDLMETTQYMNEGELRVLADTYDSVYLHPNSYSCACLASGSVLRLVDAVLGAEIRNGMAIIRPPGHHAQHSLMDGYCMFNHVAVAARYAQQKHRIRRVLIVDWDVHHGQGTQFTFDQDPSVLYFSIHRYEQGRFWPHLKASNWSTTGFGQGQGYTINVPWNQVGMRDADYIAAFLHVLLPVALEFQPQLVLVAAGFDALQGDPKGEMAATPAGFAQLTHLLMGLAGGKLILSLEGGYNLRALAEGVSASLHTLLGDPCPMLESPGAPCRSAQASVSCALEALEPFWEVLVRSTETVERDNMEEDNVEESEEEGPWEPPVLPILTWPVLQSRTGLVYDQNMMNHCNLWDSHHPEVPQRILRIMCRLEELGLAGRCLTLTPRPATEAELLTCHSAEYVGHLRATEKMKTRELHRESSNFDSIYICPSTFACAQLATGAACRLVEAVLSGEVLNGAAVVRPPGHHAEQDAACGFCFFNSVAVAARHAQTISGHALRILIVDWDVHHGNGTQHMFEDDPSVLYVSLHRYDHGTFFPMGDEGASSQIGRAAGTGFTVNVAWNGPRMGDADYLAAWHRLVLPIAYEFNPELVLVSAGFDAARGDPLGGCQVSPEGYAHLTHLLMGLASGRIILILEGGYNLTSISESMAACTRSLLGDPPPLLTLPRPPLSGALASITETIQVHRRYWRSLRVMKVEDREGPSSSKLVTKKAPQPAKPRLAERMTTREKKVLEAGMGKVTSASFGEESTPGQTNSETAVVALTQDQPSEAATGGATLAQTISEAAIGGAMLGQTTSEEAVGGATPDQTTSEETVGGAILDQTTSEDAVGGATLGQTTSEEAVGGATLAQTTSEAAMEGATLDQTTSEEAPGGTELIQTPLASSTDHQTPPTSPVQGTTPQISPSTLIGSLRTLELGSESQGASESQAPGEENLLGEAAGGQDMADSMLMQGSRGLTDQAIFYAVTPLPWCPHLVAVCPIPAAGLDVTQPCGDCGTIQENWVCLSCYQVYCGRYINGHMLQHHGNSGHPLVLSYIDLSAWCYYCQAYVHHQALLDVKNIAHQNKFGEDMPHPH
Nature of the test: Human HDAC enzyme inhibitor Fluor-de-Lys assay, HDAC6. It is filed as biochemical.

The mark [2] stands for this setting: recombinant human HDAC2, Fluor-de-Lys assay.
Setting [3] is: recombinant human HDAC8, Fluor-de-Lys assay.
[4] abbreviates: read-out: Karn EC50 (nM) 0.1% NHS, 0.1% normal human serum, luciferase induction, 100% = 2 μM SAHA.
Setting [5] is: read-out: Karn EC50 (nM) 5% NHS, 5% normal human serum, luciferase induction, 100% = 2 μM SAHA.

Results on eight compounds are retold here after US12590099B2, “Inhibitors of histone deacetylase useful for the treatment or prevention of HIV infection” (Merck Sharp & Dohme LLC, priority 2018, dated 2026).

The structures appear in SMILES notation. Like-named read-outs stand apart in the source and are kept apart here.

T3 sequence (O15379 whole entry): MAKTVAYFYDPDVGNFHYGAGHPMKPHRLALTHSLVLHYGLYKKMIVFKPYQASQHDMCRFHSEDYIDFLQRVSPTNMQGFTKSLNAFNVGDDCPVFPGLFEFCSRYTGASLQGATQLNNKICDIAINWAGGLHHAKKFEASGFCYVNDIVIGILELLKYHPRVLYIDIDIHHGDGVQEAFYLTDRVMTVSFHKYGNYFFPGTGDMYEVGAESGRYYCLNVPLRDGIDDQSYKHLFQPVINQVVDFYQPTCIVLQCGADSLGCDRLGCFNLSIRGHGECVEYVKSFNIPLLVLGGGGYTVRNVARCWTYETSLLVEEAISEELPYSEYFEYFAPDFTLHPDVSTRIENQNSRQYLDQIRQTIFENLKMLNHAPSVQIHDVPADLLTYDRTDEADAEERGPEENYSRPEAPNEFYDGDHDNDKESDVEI
T3 sequence (Q9Y618 1-899 partner limits assumed): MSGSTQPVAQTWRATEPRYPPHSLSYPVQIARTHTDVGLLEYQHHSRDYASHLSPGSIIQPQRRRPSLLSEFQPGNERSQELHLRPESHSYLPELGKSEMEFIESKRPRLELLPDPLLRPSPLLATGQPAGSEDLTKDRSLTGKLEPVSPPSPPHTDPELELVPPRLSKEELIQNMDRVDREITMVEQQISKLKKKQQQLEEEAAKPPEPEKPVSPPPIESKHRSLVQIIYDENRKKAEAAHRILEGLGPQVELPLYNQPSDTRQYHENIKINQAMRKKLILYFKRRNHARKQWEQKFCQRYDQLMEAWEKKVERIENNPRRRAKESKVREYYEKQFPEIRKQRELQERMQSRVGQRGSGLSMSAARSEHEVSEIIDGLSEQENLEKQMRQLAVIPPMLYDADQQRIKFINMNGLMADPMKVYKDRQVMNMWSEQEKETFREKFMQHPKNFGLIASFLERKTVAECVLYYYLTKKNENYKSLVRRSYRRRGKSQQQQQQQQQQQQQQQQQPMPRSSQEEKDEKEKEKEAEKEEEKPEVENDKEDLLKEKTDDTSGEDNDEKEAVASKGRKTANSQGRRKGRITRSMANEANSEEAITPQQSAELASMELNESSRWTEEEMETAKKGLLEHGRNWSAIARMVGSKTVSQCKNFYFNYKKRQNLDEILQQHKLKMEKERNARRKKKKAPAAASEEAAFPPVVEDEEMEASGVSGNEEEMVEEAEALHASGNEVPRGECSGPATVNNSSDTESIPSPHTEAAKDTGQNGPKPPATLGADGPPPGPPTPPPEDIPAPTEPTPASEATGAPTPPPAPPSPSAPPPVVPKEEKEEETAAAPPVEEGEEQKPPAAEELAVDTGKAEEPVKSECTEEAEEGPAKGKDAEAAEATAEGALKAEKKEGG
T2 sequence (Q92769 whole entry): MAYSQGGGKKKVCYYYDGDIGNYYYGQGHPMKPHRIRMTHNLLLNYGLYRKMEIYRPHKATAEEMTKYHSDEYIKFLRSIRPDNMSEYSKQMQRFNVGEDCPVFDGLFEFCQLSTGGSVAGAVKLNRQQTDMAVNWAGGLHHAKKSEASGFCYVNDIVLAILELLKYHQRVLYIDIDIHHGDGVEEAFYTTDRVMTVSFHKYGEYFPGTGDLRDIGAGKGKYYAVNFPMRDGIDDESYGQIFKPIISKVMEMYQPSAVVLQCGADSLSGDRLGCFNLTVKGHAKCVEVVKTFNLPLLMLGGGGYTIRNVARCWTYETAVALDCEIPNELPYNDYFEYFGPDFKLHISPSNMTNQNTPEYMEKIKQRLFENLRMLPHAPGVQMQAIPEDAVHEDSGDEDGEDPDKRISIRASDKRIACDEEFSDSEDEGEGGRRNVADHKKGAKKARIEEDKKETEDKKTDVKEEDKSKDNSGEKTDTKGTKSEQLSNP
T1 sequence (Q13547 whole entry): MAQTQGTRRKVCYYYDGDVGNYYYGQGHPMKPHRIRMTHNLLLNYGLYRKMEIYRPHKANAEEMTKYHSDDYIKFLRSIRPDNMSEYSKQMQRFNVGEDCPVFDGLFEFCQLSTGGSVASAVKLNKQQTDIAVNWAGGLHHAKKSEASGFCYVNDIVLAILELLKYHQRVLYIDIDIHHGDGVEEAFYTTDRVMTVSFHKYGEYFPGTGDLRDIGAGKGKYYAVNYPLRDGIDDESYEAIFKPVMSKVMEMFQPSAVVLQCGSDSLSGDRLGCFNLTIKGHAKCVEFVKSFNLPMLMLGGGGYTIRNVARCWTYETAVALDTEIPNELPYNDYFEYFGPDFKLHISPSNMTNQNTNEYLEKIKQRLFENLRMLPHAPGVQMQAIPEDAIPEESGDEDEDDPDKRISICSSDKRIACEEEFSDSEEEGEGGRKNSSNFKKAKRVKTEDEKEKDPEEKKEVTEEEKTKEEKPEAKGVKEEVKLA

As to `CCC(=O)CCCCC[C@H](NC(=O)C1NC(=O)CC12CN(C(=O)OC(C)(C)C)C2)c1nnc(-c2cc3ccccc3nc2OC)o1` (some centres unmarked) [Compound 302], the IC50 on Recombinant human HDAC1 is 49.4 nM; at Recombinant human HDAC2 (setting [2]), 121 nM; in test [1], 37.6 nM; on Recombinant human HDAC8 (setting [3]), above 45000 nM. Further, the figures for the EC50 in the test on KARN cells (Jurkat 2C4) (setting [4]) and in the test on KARN cells (Jurkat 2C4) (setting [5]) were 4460 nM and 7430 nM, respectively.
With `CCC(=O)CCCCC[C@H](NC(=O)C1NC(=O)CC12CNC2)c1nnc(-c2cc3ccccc3nc2OC)o1` (some centres unmarked) [Compound 304], the IC50 at Recombinant human HDAC1 worked out at 3.59 nM; at Recombinant human HDAC2 (setting [2]) it was 8 nM; in test [1] it was 3.23 nM; at Recombinant human HDAC8 (setting [3]), 20800 nM. The EC50 with KARN cells (Jurkat 2C4) (setting [4]) was found to be 17300 nM.
In the case of `CCC(=O)CCCCC[C@H](NC(=O)[C@H]1CC[C@]2(CC1)OC(=O)c1ncccc12)c1ncc(-c2ccccc2)[nH]1` [Compound 377], the half-maximal inhibitory concentration (IC50) on Recombinant human HDAC1 was found to be 47.1 nM; on Recombinant human HDAC2 (setting [2]), 232 nM; in test [1], 6.9 nM; on HDAC6 (HDAC6, Fluor-de-Lys assay) it was 8290 nM; at Recombinant human HDAC8 (setting [3]) it was 3010 nM.
For `CCC(=O)CCCCC[C@H](NC(=O)[C@H]1CC12CCN(C)CC2)c1ncc(-c2ccn3ncnc3c2)[nH]1` [Compound 267], the IC50 at Recombinant human HDAC1 stood at 46.7 nM; on Recombinant human HDAC2 (setting [2]) it was 170 nM; on HDAC6 (HDAC6, Fluor-de-Lys assay), 6370 nM; at Recombinant human HDAC8 (setting [3]), 11600 nM.
On to `CCC(=O)CCCCC[C@H](NC(=O)C1NC(=O)CC12CN(C)C2)c1nnc(-c2cc3ccccc3nc2OC)o1` (some centres unmarked) [Compound 309], for which the half-maximal inhibitory concentration (IC50) on Recombinant human HDAC1 is 6.91 nM; at Recombinant human HDAC2 (setting [2]), 19.3 nM; in test [1], 7.19 nM; at Recombinant human HDAC8 (setting [3]), 24000 nM. The half-maximal effective concentration (EC50) in the test on KARN cells (Jurkat 2C4) (setting [4]) is 1350 nM; with KARN cells (Jurkat 2C4) (setting [5]), 1920 nM.
Consider `CCC(=O)CCCCC[C@H](NC(=O)C1CC12CCN(CC)CC2)c1nc(-c2ccc(F)cc2)[nH]c1-c1cccc(OC)c1` (some centres unmarked) [Compound 246], for which the 50% inhibitory concentration (IC50) was 177 nM at Recombinant human HDAC1, 769 nM on Recombinant human HDAC2 (setting [2]) and 155 nM in test [1]. In addition, the EC50 with KARN cells (Jurkat 2C4) (setting [4]) was 1940 nM; in the test with KARN cells (Jurkat 2C4) (setting [5]), 3770 nM.
Turning to `CCC(=O)CCCCC[C@H](NC(=O)[C@H]1CC12CCN(CC)CC2)c1ncc(-c2cc3cccnc3cc2OC)o1` [Compound 169], the values for the IC50 at Recombinant human HDAC2, against HDAC6 and on Recombinant human HDAC8 were 2.2 nM, 83 nM and 7580 nM, respectively. The EC50 with KARN cells (Jurkat 2C4) (read-out: Karn EC50 (nM) 0.1% NHS, 0.1% normal human serum) was determined as 91 nM; in the test with KARN cells (Jurkat 2C4) (read-out: Karn EC50 (nM) 5% NHS, 5% normal human serum) it was 78 nM.
In the case of `CCC(=O)CCCCC[C@H](NC(=O)[C@H]1CC12CCN(C)CC2)c1ncc(-c2ccc3cnc(Cl)cc3c2)[nH]1` [Compound 351], the IC50 at Recombinant human HDAC1 is 1.57 nM; at Recombinant human HDAC2 (setting [2]), 7.1 nM; in test [1], 1.32 nM; at HDAC6 (HDAC6, Fluor-de-Lys assay), 1470 nM; at Recombinant human HDAC8 (setting [3]), 5830 nM.
